Positions count from the first letter of the chain named. pIC50, pKi: −log10 of the molar value.
Assays:
h5-HT3AR [1] = target: T1, h5-HT3AR (Homo sapiens, UniProt P46098, V202I); assay: FLIPR Blue membrane potential assay, inhibition of 5-HT response; type: cell-based
T1 sequence (P46098 24-478 V202I): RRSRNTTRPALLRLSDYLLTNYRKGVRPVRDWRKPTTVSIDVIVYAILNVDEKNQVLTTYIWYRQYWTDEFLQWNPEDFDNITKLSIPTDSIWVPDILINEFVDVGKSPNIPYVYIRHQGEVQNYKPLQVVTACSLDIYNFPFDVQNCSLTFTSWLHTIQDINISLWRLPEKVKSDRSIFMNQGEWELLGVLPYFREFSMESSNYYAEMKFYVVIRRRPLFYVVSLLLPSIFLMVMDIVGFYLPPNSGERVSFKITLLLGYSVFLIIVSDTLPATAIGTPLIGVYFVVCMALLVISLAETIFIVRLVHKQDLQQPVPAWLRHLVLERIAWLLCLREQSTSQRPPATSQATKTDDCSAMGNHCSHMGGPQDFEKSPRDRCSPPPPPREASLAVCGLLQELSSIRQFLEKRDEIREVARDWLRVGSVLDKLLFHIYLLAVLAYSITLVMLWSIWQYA

r5-HT3AR = target: T2, r5-HT3AR (Rattus norvegicus, UniProt P35563, I207V); assay: as above; type: cell-based
T2 sequence (P35563 24-483 I207V): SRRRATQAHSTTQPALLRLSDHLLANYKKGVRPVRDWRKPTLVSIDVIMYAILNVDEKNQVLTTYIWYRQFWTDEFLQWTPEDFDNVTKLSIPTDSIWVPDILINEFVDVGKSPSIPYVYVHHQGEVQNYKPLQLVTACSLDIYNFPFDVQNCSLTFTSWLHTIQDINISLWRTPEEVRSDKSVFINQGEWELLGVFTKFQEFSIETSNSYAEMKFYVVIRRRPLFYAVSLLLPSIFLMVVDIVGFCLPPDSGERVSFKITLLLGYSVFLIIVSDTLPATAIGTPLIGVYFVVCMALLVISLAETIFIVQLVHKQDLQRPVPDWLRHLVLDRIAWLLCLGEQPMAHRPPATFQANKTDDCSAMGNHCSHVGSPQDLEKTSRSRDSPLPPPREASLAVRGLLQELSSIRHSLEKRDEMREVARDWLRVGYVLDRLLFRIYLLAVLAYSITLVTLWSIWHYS

gp5-HT3AR = target: T3, gp5-HT3AR (Cavia porcellus, UniProt O70212); assay: as above; type: cell-based
T3 sequence (O70212 20-490): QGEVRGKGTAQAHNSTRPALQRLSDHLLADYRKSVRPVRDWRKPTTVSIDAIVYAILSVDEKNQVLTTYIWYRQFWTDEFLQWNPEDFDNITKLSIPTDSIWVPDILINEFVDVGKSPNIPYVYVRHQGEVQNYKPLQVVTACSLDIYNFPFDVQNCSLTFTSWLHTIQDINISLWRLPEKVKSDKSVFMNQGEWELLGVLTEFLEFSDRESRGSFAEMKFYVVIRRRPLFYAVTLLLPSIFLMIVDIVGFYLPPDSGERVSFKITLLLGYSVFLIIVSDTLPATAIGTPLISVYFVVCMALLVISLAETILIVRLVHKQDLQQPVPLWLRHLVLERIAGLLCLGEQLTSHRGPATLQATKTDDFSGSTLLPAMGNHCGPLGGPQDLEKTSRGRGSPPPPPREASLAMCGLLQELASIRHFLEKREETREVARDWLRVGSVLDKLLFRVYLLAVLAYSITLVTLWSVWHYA

h5-HT3AR [2] = target: T4, h5-HT3AR (Homo sapiens, UniProt P46098, M204I); assay: as above; type: cell-based
T4 sequence (P46098 24-478 M204I): T1 sequence (P46098 24-478 V202I) with I179V, M181I

h5-HT3AR [3] = target: T5, h5-HT3AR (Homo sapiens, UniProt P46098, S225T); assay: as above; type: cell-based
T5 sequence (P46098 24-478 S225T): T1 sequence (P46098 24-478 V202I) with I179V, S202T

h5-HT3AR [4] = target: T6, h5-HT3AR (Homo sapiens, UniProt P46098); assay: [3H]-GR65630 displacement, HEK-293 membranes; type: binding
T6 sequence (P46098 24-478): T1 sequence (P46098 24-478 V202I) with I179V

pIC50 (h5-HT3AR [1]): 7.43
pIC50 (r5-HT3AR): 8.00
pIC50 (gp5-HT3AR): 5.63
pIC50 (h5-HT3AR [2]): 7.14
pIC50 (h5-HT3AR [3]): 7.24
pKi (h5-HT3AR [4]): 7.62
Compound: Cc1ccc(Sc2ccccc2N2CCNCC2)c(C)c1 [vortioxetine]

Reference: doi:10.1101/2024.02.23.581731v1 (biorxiv, 2024)
